Here are results for one molecule from US20260364072A1, “METHODS FOR PROMOTING EXPANSION OF HUMAN CD34+ CELLS IN VIVO AND FOR PROMOTING NEURAL REGENERATION” (THE REGENTS OF THE UNIVERSITY OF CALIFORNIA, priority 2023, published 2026).

Series [1] relates to human CD45+ADAR1-GFP+ cells and CD45+CD3+ADAR1-GFP+ cells. Kind of series: aNBM SAK378 PDX mice, flow cytometry. It is filed as in vivo, human cells in NSG-SGM3 mice. As to conditions: 10 mg/kg, IV, BIW×2. On the procedure:
Aged normal bone marrow (aNBM) PDX mouse models SAK378 were established with 80-100K ADAR1-reporter transduced CD34+ cells by IV injection into NSG-SGM3 mice at the age of 5-6 weeks. When the models were ready, the mice were treated with either vehicle or rebecsinib (10 mg/kg, IV, BIW×2). The mice were sacrificed upon completion of the dosing plan, and single cells from PB, SP, and BM were collected and stained with mAbs for CD45, CD3, CD14, and CD19.
(Flow cytometry measures light scatter and fluorescence of single cells or particles in a stream.)

Series [2] has as its system splicing reporter in KG-1a AML cells. Kind of series: Lentiviral dual fluorescence (RFP/GFP) splicing reporter in KG-1a cells. The series is classed as cell-based, human. As to conditions: 24 hr. The text has this: (FIG. 29A) Quantification of cell viability (left panel) and splicing modulation (RFP/GFP ratios, right panel) by flow cytometry analyses of the human AML cell line (KG-1a) stably transduced with a lentiviral dual-fluorescence splicing reporter vector and treated with increasing concentrations of Rebecsinib.
For generation of stably transduced splicing reporter cell lines, a previously described splicing reporter construct^31 was cloned into a lentiviral vector backbone.^52 KG-1a cells were transduced with the dual-fluorescent lentiviral splicing reporter vector, treated with various concentrations of Rebecsinib (3-fold serial dilutions from 3 μM to 4 nM) for 24 hr, washed followed by DAPI staining, and analyzed by flow cytometry for cell viability and RFP/GFP fluorescence intensity. Results were from duplicate wells of each condition. Viability of cells treated with DMSO (0.5% final concentration) was set as 100%. Nonlinear regression curve fit analysis was carried out using Prism software (GraphPad) to determine ECso values for viability and mean fluorescence intensity (MFI) of RFP and GFP.

For series [3], the system named is sAML LSC. Kind of series: Humanized sAML LSC mouse model. As to conditions: twice weekly dosing; splicing factor mutated and unmutated samples. The series is classed as in vivo, human cells in Rag2-/-γc-/- mice. The text has this:
In humanized mouse models, sAML cells (CD34^+) from two unique […] patient samples that were splicing factor mutated or unmutated were utilized, including sAML50261 and sAML2008-5.^14 For in vivo efficacy and therapeutic index studies, sAML CD34^+ cells, or normal human cord blood-derived or aged bone marrow-derived HSPCs (CD34^+), were transplanted (50,000-200,000 cells per mouse) intrahepatically into neonatal Rag2^−/−γc^−/− mice, or intravenously into adult NSG-SGM3 mice (Jackson Laboratories, Bar Harbor, ME). A subset of experiments was performed with normal aged bone marrow cells that were transduced with the lentiviral ADAR1 nanoluc-GFP reporter vector prior to transplant. […] For animals that received transplants of cells transduced with the lentiviral ADAR1 nanoluc-GFP reporter, mice were imaged 15 weeks after transplant on the IVIS 200, as previously described.^79 Following treatment with Rebecsinib (five intravenous doses total over a two-week period), hematopoietic tissues (peripheral blood, bone marrow, spleens) were collected and analyzed by flow cytometry as previously described.^14 For splice isoform-specific qRT-PCR or RNA-seq analyses on cells from in vivo studies, human CD34^+ LSC from bone marrows and spleens of engrafted mice were isolated by magnetic bead separation (Miltenyi Biotec).

Series [4] concerns sAML LSC. Kind of series: Serial transplantation assays of sAML LSC. It is filed as in vivo, human cells in mice. The procedure:
To test this, we performed serial transplantation assays of cells harvested from sAML50261 LSC engrafted mice that were treated intravenously twice weekly for two weeks with Rebecsinib at 10 mg/kg (serial transplant recipients received no further treatment). […] Thus, reductions in ADAR1p150-mediated RNA editing activity following Rebecsinib treatment correspond with a reversion to a healthy splice isoform expression profile^14 in engrafted human progenitors.
In humanized mouse models, sAML cells (CD34^+) from two unique […] patient samples that were splicing factor mutated or unmutated were utilized, including sAML50261 and sAML2008-5.^14 For in vivo efficacy and therapeutic index studies, sAML CD34^+ cells, or normal human cord blood-derived or aged bone marrow-derived HSPCs (CD34^+), were transplanted (50,000-200,000 cells per mouse) intrahepatically into neonatal Rag2^−/−γc^−/− mice, or intravenously into adult NSG-SGM3 mice (Jackson Laboratories, Bar Harbor, ME). A subset of experiments was performed with normal aged bone marrow cells that were transduced with the lentiviral ADAR1 nanoluc-GFP reporter vector prior to transplant. For transplantation into adult mice, animals were irradiated with ^137Cs at a dose of 150 cGy 24 hr before IV transplantation. After engraftment levels reached >1% human CD45^+ hematopoietic cells in the peripheral blood, animals were distributed among treatment groups for treatment with Rebecsinib or vehicle control essentially as previously described, with an increased dosing regimen of twice weekly (versus once weekly in prior studies)^14 and an optimized in vivo formulation (2% w/w EtOH, 5% w/v KOLLIPHOR HS™ 15 in 0.9% saline). For animals that received transplants of cells transduced with the lentiviral ADAR1 nanoluc-GFP reporter, mice were imaged 15 weeks after transplant on the IVIS 200, as previously described.^79 Following treatment with Rebecsinib (five intravenous doses total over a two-week period), hematopoietic tissues (peripheral blood, bone marrow, spleens) were collected and analyzed by flow cytometry as previously described.^14 For splice isoform-specific qRT-PCR or RNA-seq analyses on cells from in vivo studies, human CD34^+ LSC from bone marrows and spleens of engrafted mice were isolated by magnetic bead separation (Miltenyi Biotec).
Additional aliquots of CD34+ cells from bone marrow and/or spleens of treated and control animals were used for serial transplantation assays after Rebecsinib treatment, including engraftment studies and overall survival assays. In a separate cohort of animals, mice were treated with Fedratinib for two weeks (twice daily oral delivery at 60 mg/kg) as a positive control for modulation of ADAR1 expression and activity.^8

A short description of series [5]: Multi-species (rat, rabbit, NHP) pre-IND studies. It is filed as in vivo. The procedure:
[…] Rat and rabbit studies included toxicology analyses, quantification of plasma levels of Rebecsinib, and necropsies to evaluate organ integrity after treatment. For NHP studies, health and ophthalmological evaluations were performed before and after dosing with Rebecsinib, and blood samples were collected for quantification of plasma levels of Rebecsinib and biomarker studies in PBMCs from treated and control animals. All monkeys were returned to the animal colony after the end of the observation period. Toxicokinetic values including mean plasma concentrations and t1/2 values were calculated according to CRO-approved protocols (Charles River and BASi).

For the molecule `CC[C@H](OC)[C@@H](C)[C@H]1O[C@@H]1[C@@H](O)[C@H](C)/C=C/C=C(\C)[C@H]1OC(=O)C[C@H](O)CC[C@@](C)(O)[C@@H](OC(C)=O)/C=C/[C@@H]1C` [Rebecsinib], in series [1], the “CD45+CD3+GFP+ cells in PB, SP, and BM” value is given as “spares the cell populations”; the “CD45+GFP+ cells in PB, SP, and BM” value is on record as “spares the cell populations”. For the same molecule, the “RFP to GFP reporter expression” value in series [2] is reported as “increased RFP to GFP reporter expression in a dose-dependent manner”. The “sAML LSC burden in bone marrow, peripheral blood, and spleen” value in the series on sAML LSC [3] is listed as “significant reduction in sAML LSC burden”. Besides, the “ADAR-208 expression after serial transplantation compared with ADAR1p110” value in the series with sAML LSC [4] (CD34+ cells from serial transplant recipients, RNA-seq) is “sustained reductions in expression”. The “frequency of hematopoietic progenitors (CD34+CD38+Lin-) in spleens of serial transplant recipients” value in the series on sAML LSC [4] (sAML50261, 10 mg/kg intravenously twice weekly for two weeks (primary mice)) is given as “reduced frequency of hematopoietic progenitors”. Besides, the “LSC self-renewal on serial transplantation” value with sAML LSC [4] (splicing factor mutated sAML (2008-5)) is reported as “significantly reduced LSC self-renewal”. The “overall survival of serial transplant recipients” value with sAML LSC [4] (splicing factor unmutated sAML 50261) is listed as “significant improvement in overall survival”. For the same molecule, the systemic toxicity result in series [5] is recorded as “no evidence of systemic toxicity”. Further, in series [5] (clinically tractable formulation), the bioavailability and stability result is “favorable bioavailability and stability”. For the same molecule, in series [5] (pre-IND studies), the “tolerability in rat, rabbit, NHP” value was “well tolerated”. Also, the splicing modulation entry in series [5] (rat, rabbit, NHP) was “dose-dependent increases in splicing modulation”.
